Test results as given in PMC6269792, “Arylsulfonylamino-Benzanilides as Inhibitors of the Apical Sodium-Dependent Bile Salt Transporter (SLC10A2)” (Molecules, 2013).

Legend:
[1] = target: T1, Human ASBT (Homo sapiens, UniProt Q12908); test: ASBT inhibition assay: [3H]-taurocholic acid uptake in HEK293T cells transiently transfected with human ASBT; format: cell-based; conditions: for inhibition at 10 µM: HEK-293T; for IC50: inhibitor concentration that gives 50% taurocholate uptake compared to no inhibitor control
T1 construct: expressed in transfected cells; host or cells: HEK293T
T1 sequence (Q12908 1-348): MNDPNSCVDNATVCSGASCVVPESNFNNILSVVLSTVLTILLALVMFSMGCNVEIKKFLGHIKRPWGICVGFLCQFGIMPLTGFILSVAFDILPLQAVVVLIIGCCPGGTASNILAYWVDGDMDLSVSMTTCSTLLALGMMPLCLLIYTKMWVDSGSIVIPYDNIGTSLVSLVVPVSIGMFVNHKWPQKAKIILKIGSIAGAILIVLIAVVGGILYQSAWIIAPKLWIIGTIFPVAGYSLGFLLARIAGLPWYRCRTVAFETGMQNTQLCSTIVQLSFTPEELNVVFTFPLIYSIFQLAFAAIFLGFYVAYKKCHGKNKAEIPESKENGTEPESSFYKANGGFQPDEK
Experimental: In vitro inhibitory activity of all target compounds against ASBT was evaluated using a radioisotope-based assay. All the newly synthesized derivatives were initially tested at 10 μM concentration (Table 1).
HEK293T was obtained from the American Type Culture Collection (Manassas, VA, USA), and grown in MEM supplemented with 100 U/mL penicillin and […] streptomycin and 10% heat-inactivated fetal bovine serum. Human ASBT expression construct was prepared as previously described. HEK293T cells were seeded in 12 well plates and transiently transfected with 0.5 μg/well pcDNA3.1/ASBT or negative control plasmid pcDNA3.1 using lipofactamine 2000 (Invitrogen, Carlsbad, CA, USA) according to the manufacturer’s instructions. Twenty-four hours after transfection, HEK293T cells were assayed for taurocholic acid uptake as previously described with minor modifications. […] To terminate the transport process, the plates were chilled on ice and the cells were immediately washed with ice-cold buffer three times. Cells were lysed with 0.3 mL lysis buffer (0.5% triton x-100) and shaken vigorously for 20 min. The radioactivity of the cell lysate was counted using a MicroBeta^2 Liquid Scintillation and Luminescence Counter (PerkinElmer Life Sciences). Protein concentration of the lysate was used to normalize uptake activity.
The inhibition rate was calculated using the following formula: Inhibition Rate (%) = [(1 − (A − C)/(B − C)] × 100
A, [^3H] uptake value of test compound in [^3H]-TCA buffer added to pcDNA3.1/ASBT transfected cells; B, [^3H] uptake value of DMSO (without inhibitor) in [^3H]-TCA buffer added to pcDNA3.1/ASBT transfected cells; C, [^3H] uptake value of Blank sample (DMSO) in [^3H]-TCA buffer added to empty vector (pcDNA3.1) transfected cells.

inhibition at 10 µM [1] | IC50 [1] | melting point | Compound
89 ± 2.6% | 2.84 ± 0.52 µM | 127.4 to 128.2 °C | O=C(Nc1cccc(OC(F)F)c1)c1ccccc1NS(=O)(=O)c1cccc([N+](=O)[O-])c1 [Compound 5a3, N-(3-(Difluoromethoxy)phenyl)-2-(3-nitrophenylsulfonamido)benzamide]
56.3 ± 2.8% |  | 209.9 to 210.4 °C | O=C(Nc1cc(Cl)cc(Cl)c1)c1ccccc1NS(=O)(=O)c1cccc([N+](=O)[O-])c1 [Compound 5a7, N-(3,5-Dichlorophenyl)-2-(3-nitrophenylsulfonamido)benzamide]
46.9 ± 3.6% |  | 167.3 to 168.1 °C | O=C(Nc1cccc(Cl)c1)c1ccccc1NS(=O)(=O)c1cccc([N+](=O)[O-])c1 [Compound 5a9, N-(3-Chlorophenyl)-2-(3-nitrophenylsulfonamido)benzamide]
66.3 ± 5% |  | 161.3 to 162.6 °C | O=C(Nc1ccc(F)c(Cl)c1)c1cccc(NS(=O)(=O)c2cccc([N+](=O)[O-])c2)c1 [Compound 5b1, N-(3-Chloro-4-fluorophenyl)-3-(3-nitrophenylsulfonamido)benzamide]
30.6 ± 4.3% |  | 159.8 to 160.6 °C | O=C(Nc1cccc(OC(F)F)c1)c1cccc(NS(=O)(=O)c2cccc([N+](=O)[O-])c2)c1 [Compound 5b2, N-(3-(Difluoromethoxy)phenyl)-3-(3-nitrophenylsulfonamido)benzamide]
73.9 ± 2.2% |  | 243.4 to 243.6 °C | O=C(Nc1ccc(Cl)c(Cl)c1)c1ccccc1NS(=O)(=O)c1ccc([N+](=O)[O-])cc1 [Compound 5d6, N-(3,4-Dichlorophenyl)-2-(4-nitrophenylsulfonamido)benzamide]
63.2 ± 3.8% |  | 178.6 to 179.9 °C | O=C(Nc1ccc(F)c(Cl)c1)c1ccccc1NS(=O)(=O)c1cccc(F)c1 [Compound 5e2, N-(3-Chloro-4-fluorophenyl)-2-(3-fluorophenylsulfonamido)benzamide]
57.6 ± 2.9% |  | 168.8 to 169.6 °C | Cc1ccc(NC(=O)c2ccccc2NS(=O)(=O)c2cccc(F)c2)cc1C(F)(F)F [Compound 5e3, 2-(3-Fluorophenylsulfonamido)-N-(4-methyl-3-(trifluoromethyl)phenyl)benzamide]
45.7 ± 3.6% |  | 166.8 to 168.7 °C | O=C(Nc1cccc(OC(F)(F)F)c1)c1ccccc1NS(=O)(=O)c1cccc(F)c1 [Compound 5e4, 2-(3-Fluorophenylsulfonamido)-N-(3-(trifluoromethoxy)phenyl)benzamide]
21.2 ± 3% |  | 138.8 to 139.7 °C | COc1cccc(S(=O)(=O)Nc2ccccc2C(=O)Nc2ccc(Cl)cc2Cl)c1 [Compound 5f1, N-(2,4-Dichlorophenyl)-2-(3-methoxyphenylsulfonamido)benzamide]
43 ± 3.2% |  | 165.7 to 166.6 °C | COc1cccc(S(=O)(=O)Nc2ccccc2C(=O)Nc2ccc(C)c(C(F)(F)F)c2)c1 [Compound 5f3, 2-(3-Methoxyphenylsulfonamido)-N-(4-methyl-3-(trifluoromethyl)phenyl)benzamide]

Continued, compound first:

Compound | inhibition at 10 µM [1] | IC50 [1] | melting point
O=C(Nc1ccc(F)c(Cl)c1)c1ccccc1NS(=O)(=O)c1cccc([N+](=O)[O-])c1 [Compound 5a2, N-(3-Chloro-4-fluorophenyl)-2-(3-nitrophenylsulfonamido)benzamide] | 95.4 ± 3.3% | 1.32 ± 0.28 µM | 203.4 to 204.1 °C
O=C(Nc1cccc(OC(F)(F)F)c1)c1ccccc1NS(=O)(=O)c1cccc([N+](=O)[O-])c1 [Compound 5a4, 2-(3-Nitrophenylsulfonamido)-N-(3-(trifluoromethoxy)phenyl)benzamide] | 83.8 ± 3.4% | 1.23 ± 0.12 µM | 141.4 to 142 °C
O=C(Nc1cc(F)cc(F)c1)c1ccccc1NS(=O)(=O)c1cccc([N+](=O)[O-])c1 [Compound 5a5, N-(3,5-Difluorophenyl)-2-(3-nitrophenylsulfonamido)benzamide] | 21.6 ± 4.1% |  | 181.1 to 181.9 °C
COc1ccc(NC(=O)c2ccccc2NS(=O)(=O)c2cccc([N+](=O)[O-])c2)cc1O [Compound 5a6, N-(3-Hydroxy-4-methoxyphenyl)-2-(3-nitrophenylsulfonamido)benzamide] | 32.1 ± 3.3% |  | 168.9 to 170.1 °C
Cc1ccc(NC(=O)c2ccccc2NS(=O)(=O)c2cccc([N+](=O)[O-])c2)cc1C(F)(F)F [Compound 5a10, N-(4-Methyl-3-(trifluoromethyl)phenyl)-2-(3-nitrophenylsulfonamido)benzamide] | 90.7 ± 4.2% | 1.49 ± 0.09 µM | 166.4 to 167.4 °C
O=C(Nc1ccc(Cl)c(Cl)c1)c1cccc(NS(=O)(=O)c2cccc([N+](=O)[O-])c2)c1 [Compound 5b3, N-(3,4-dichlorophenyl)-3-(3-nitrophenylsulfonamido)benzamide] | 62.4 ± 2.9% |  | 192.5 to 193.7 °C
O=C(Nc1cccc(OC(F)(F)F)c1)c1ccc(NS(=O)(=O)c2cccc([N+](=O)[O-])c2)cc1 [Compound 5c1, 4-(3-Nitrophenylsulfonamido)-N-(3-(trifluoromethoxy)phenyl)benzamide] | 29.6 ± 3.5% |  | 177.3 to 178.2 °C
O=C(Nc1ccc(Cl)c(Cl)c1)c1ccc(NS(=O)(=O)c2cccc([N+](=O)[O-])c2)cc1 [Compound 5c2, N-(3,4-Dichlorophenyl)-4-(3-nitrophenylsulfonamido)benzamide] | 34.8 ± 3.7% |  | 189.2 to 190.5 °C
O=C(Nc1ccc(Cl)cc1Cl)c1ccccc1NS(=O)(=O)c1ccc([N+](=O)[O-])cc1 [Compound 5d1, N-(2,4-Dichlorophenyl)-2-(4-nitrophenylsulfonamido)benzamide] | 66.9 ± 3.5% |  | 220.6 to 221.3 °C
O=C(Nc1ccc(F)c(Cl)c1)c1ccccc1NS(=O)(=O)c1ccc([N+](=O)[O-])cc1 [Compound 5d2, N-(3-Chloro-4-fluorophenyl)-2-(4-nitrophenylsulfonamido)benzamide] | 75.5 ± 4.4% |  | 226.4 to 227.1 °C
Cc1ccc(NC(=O)c2ccccc2NS(=O)(=O)c2ccc([N+](=O)[O-])cc2)cc1C(F)(F)F [Compound 5d3, N-(4-Methyl-3-(trifluoromethyl)phenyl)-2-(4-nitrophenylsulfonamido)benzamide] | 73.7 ± 3.8% |  | 198.8 to 199.6 °C
O=C(Nc1cccc(OC(F)F)c1)c1ccccc1NS(=O)(=O)c1ccc([N+](=O)[O-])cc1 [Compound 5d4, N-(3-(Difluoromethoxy)phenyl)-2-(4-nitrophenylsulfonamido)benzamide] | 58.8 ± 4.3% |  | 203.9 to 205 °C
O=C(Nc1cccc(OC(F)(F)F)c1)c1ccccc1NS(=O)(=O)c1ccc([N+](=O)[O-])cc1 [Compound 5d5, 2-(4-Nitrophenylsulfonamido)-N-(3-(trifluoromethoxy)phenyl)benzamide] | 66.7 ± 3.9% |  | 198.8 to 199.4 °C
O=C(Nc1ccc(Cl)cc1Cl)c1ccccc1NS(=O)(=O)c1cccc(F)c1 [Compound 5e1, N-(2,4-Dichlorophenyl)-2-(3-fluorophenylsulfonamido)benzamide] | 42.6 ± 3.4% |  | 146.3 to 147.6 °C
O=C(Nc1ccc(Cl)c(Cl)c1)c1ccccc1NS(=O)(=O)c1cccc(F)c1 [Compound 5e5, N-(3,4-Dichlorophenyl)-2-(3-fluorophenylsulfonamido)benzamide] | 40.6 ± 2.8% |  | 179.1 to 180.6 °C
COc1cccc(S(=O)(=O)Nc2ccccc2C(=O)Nc2ccc(F)c(Cl)c2)c1 [Compound 5f2, N-(3-Chloro-4-fluorophenyl)-2-(3-methoxyphenylsulfonamido)benzamide] | 59.5 ± 3.6% |  | 181.9 to 183.2 °C
COc1cccc(S(=O)(=O)Nc2ccccc2C(=O)Nc2cccc(OC(F)(F)F)c2)c1 [Compound 5f4, 2-(3-Methoxyphenylsulfonamido)-N-(3-(trifluoromethoxy)phenyl)benzamide] | 25.8 ± 2.1% |  | 149.3 to 150.8 °C
O=C(Nc1ccc(Cl)c(Cl)c1)c1ccccc1NS(=O)(=O)c1cccc(OC(F)(F)F)c1 [Compound 5g5, N-(3,4-Dichlorophenyl)-2-(3-(trifluoromethoxy)phenylsulfonamido)benzamide] | 80.8 ± 4.3% | 1.22 ± 0.2 µM | 
